Reference: ChEMBL document CHEMBL1137319, “Thyroid receptor ligands. 6. A high affinity "direct antagonist" selective for the thyroid hormone receptor” (J Med Chem, 2006)

Legend:
Rattus norvegicus [1] = test: Increase in LDL cholesterol level in orally dosed cholesterol-fed Sprague-Dawley rat relative to control; assay type: functional
[2] = biological target: T1, Thyroid hormone receptor alpha (Homo sapiens, UniProt P10827); test: Binding affinity to human TRalpha1
T1 sequence (P10827 whole entry): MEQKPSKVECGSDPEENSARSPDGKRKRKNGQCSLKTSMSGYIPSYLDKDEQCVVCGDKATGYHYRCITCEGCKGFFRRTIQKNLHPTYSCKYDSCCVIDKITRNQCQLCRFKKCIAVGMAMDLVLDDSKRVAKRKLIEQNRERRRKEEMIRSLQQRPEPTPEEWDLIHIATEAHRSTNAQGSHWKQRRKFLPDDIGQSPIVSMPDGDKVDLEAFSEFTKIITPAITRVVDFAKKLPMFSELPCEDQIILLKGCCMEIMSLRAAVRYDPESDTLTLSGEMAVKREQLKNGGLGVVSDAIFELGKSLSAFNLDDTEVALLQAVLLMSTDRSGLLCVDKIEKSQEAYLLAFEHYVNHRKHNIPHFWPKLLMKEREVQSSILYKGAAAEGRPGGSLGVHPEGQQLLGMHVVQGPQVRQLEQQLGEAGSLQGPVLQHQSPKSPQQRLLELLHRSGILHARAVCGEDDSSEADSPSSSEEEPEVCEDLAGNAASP

[3] = biological target: T2, Thyroid hormone receptor beta (Homo sapiens, UniProt P10828); test: Activity at human TR-beta-1 transfected in CHO K1 cells by alkaline phosphatase reporter gene assay
T2 sequence (P10828 whole entry): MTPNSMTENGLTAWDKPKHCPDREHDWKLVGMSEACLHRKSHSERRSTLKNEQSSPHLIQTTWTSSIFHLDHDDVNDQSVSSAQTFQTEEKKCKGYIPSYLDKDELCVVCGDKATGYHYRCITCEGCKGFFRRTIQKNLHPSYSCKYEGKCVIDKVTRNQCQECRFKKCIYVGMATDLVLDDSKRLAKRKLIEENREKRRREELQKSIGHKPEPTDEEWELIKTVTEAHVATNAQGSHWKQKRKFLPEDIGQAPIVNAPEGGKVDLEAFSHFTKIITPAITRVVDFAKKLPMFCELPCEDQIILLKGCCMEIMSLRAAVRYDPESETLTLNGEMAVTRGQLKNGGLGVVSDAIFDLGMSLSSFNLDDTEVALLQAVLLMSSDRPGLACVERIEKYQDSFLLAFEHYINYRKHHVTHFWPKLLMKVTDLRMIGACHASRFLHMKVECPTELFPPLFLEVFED

[4] = biological target: T2, Thyroid hormone receptor beta; test: Binding affinity to human TRbeta1
Rattus norvegicus [5] = test: Decrease in heart rate in orally dosed cholesterol-fed Sprague-Dawley rat relative to control; assay type: functional; parameters: scale not given: the % may be the effect or the level left
[6] = biological target: T1, Thyroid hormone receptor alpha; test: Activity at human TR-alpha-1 transfected in CHO K1 cells by alkaline phosphatase reporter gene assay

Row | SMILES | Activity (Rattus norvegicus [1]) | IC50 [2] | IC50 [3] | IC50 [4] | Activity (Rattus norvegicus [5]) | IC50 [6]
1 | CC(C)c1cc(Oc2c(Br)cc(CCC(=O)O)cc2Br)cc(/C=C/c2ccncc2)c1O | 13% | 0.036 µM | 0.032 µM | 0.022 µM | -10% | 0.032 µM
2 | O=C(O)CCc1ccccc1OCC1C(Br)CCCC1Br (stereo not drawn) | – | 0.46 µM | – | 0.19 µM | – | –
